Tests used:
[1] = tested on: CBA mice on HFD (DIO mice); assay: CBA mice on test material-HFD (0.4, 0.8, 2 mg/g) for 7 w; format: in vivo
Description: 12 weeks old CBA mice were randomised into a HFD and three test material-HFD groups (0.4 mg/g, 0.8 mg/g, and 2 mg/g) for 7 weeks. 16-17 weeks old CBA mice on regular diet was used as controls where indicated.
Animals were housed at 12:12 hour light/dark cycle in a temperature/humidity controlled (22° C./50% humidity) room and ad libitum feeding with either standard chow (Special Diet Service #801730), high fat diet (HFD) (Research diets, Inc. #D12492) or HFD (Research diets, Inc. #D12492) custom formulated with test material at 2 mg/g test material, 0.8 mg/g test material and 0.4 mg/g test material, respectively.
All cell lines were lysed in 0.1 M Tris-HCl, pH 6.8, 2% SDS, 10 mM sodium fluoride (SIGMA #S7920), 10 mM β-glycerophosphate (SIGMA #G6376), and 1 mM sodium vanadate (SIGMA #72060) and supernatant collected after 1 minute at 14,000 rpm. Islets (human and mouse) were lysed in 0.1 M Tris-HCl, pH 6.8, 2% SDS, protease inhibitor (Roche #04 693 124 001) and phosphatase inhibitor (Roche #04 906 837 001). Right calf muscle, heart, iWAT, and interscapular BAT was crushed in a pestle using liquid nitrogen and homogenised in ice cold RIPA buffer (150 mM sodium chloride (SIGMA #S7653), 1.0% NP40 (USB), 0.5% sodium deoxycholate (SIGMA #D6750), 0.1% SDS, 50 mM Tris pH 8.0, 20 mM sodium pyrophosphate (SIGMA #71515), 10 mM sodium fluoride, 10 mM β-glycerolphosphate, 1 mM sodium vanadate and protease inhibitor cocktail (Roche #04693124001), 1 tablet/10 ml lysis buffer). The supernatant was collected after 2 min at 14,000 rpm. This procedure was repeated until all fat was eliminated and the supernatant was clear, at 4° C. Samples were analysed on 4-15% polyacrylamide gels. Values were normalised toward AMPKα, β-Actin, GAPDH or the respective non-phosphorylated counterpart. […]

[2] = tested on: AMPK in Wi-38 human lung fibroblast cells; assay: AMPK activation assay in Wi-38 cells (immunoblot); format: cell-based; conditions: 2.5, 5 or 10 μM, 16 hours; dose-dependent
Description: All cell lines were lysed in 0.1 M Tris-HCl, pH 6.8, 2% SDS, 10 mM sodium fluoride (SIGMA #S7920), 10 mM β-glycerophosphate (SIGMA #G6376), and 1 mM sodium vanadate (SIGMA #72060) and supernatant collected after 1 minute at 14,000 rpm. Islets (human and mouse) were lysed in 0.1 M Tris-HCl, pH 6.8, 2% SDS, protease inhibitor (Roche #04 693 124 001) and phosphatase inhibitor (Roche #04 906 837 001). Right calf muscle, heart, iWAT, and interscapular BAT was crushed in a pestle using liquid nitrogen and homogenised in ice cold RIPA buffer (150 mM sodium chloride (SIGMA #S7653), 1.0% NP40 (USB), 0.5% sodium deoxycholate (SIGMA #D6750), 0.1% SDS, 50 mM Tris pH 8.0, 20 mM sodium pyrophosphate (SIGMA #71515), 10 mM sodium fluoride, 10 mM β-glycerolphosphate, 1 mM sodium vanadate and protease inhibitor cocktail (Roche #04693124001), 1 tablet/10 ml lysis buffer). The supernatant was collected after 2 min at 14,000 rpm. This procedure was repeated until all fat was eliminated and the supernatant was clear, at 4° C. Samples were analysed on 4-15% polyacrylamide gels. Values were normalised toward AMPKα, β-Actin, GAPDH or the respective non-phosphorylated counterpart.
Table 3 contains origin of cell lines, growth conditions and settings for activation of AMPK via the test material. […]

[3] = 0.4, 0.8 and 2 mg/g in HFD, 6 w

Structure (SMILES): O=C(Nc1nc(=O)n(Cc2ccc(Cl)cc2)s1)c1ccc(Cl)cc1 [test material, 4-chloro-N-[2-[(4-chlorophenyl)methyl]-3-oxo-1,2,4-thiadiazol-5-yl]benzamide]
- expression of Cd36 and Cpt1b in BAT ([1]; 2 mg/g in HFD): significantly increased the expression of Cd36
- expression of Fas, Scd1 and Acc1 in BAT ([1]; 2 mg/g in HFD): potently reduced the expression
- weights of BAT pads ([1]; 2 mg/g in HFD, vs HFD): reduced
- weights of iWAT and eWAT fat pads ([1]; 2 mg/g in HFD, vs HFD): markedly lower weights
- dysglycemia (fasted blood glucose) [1, 3]: potently prevented
- hyperinsulinemia (fasted insulin) [1, 3]: potently prevented
- insulin resistance (HOMA-IR) [1, 3]: potently prevented
- pAMPK in calf muscle ([1]; 0.4, 0.8 and 2 mg/g in HFD, 7 w): dose-dependently increased pAMPK
- heart glycogen content ([1]; 0.8 or 2 mg/g in HFD, 7 w): reduced in a dose-dependent manner
- heart weight/tibia length ([1]; 0.8 or 2 mg/g in HFD, 7 w): did not cause an increase in heart weight/tibia length
- pAMPK levels in the heart ([1]; 0.8 or 2 mg/g in HFD, 7 w): significantly increased pAMPK levels in the heart
- Cpt1b mRNA levels in liver ([1]; DIO mice): dose-dependently increased Cpt1b
- hepatic steatosis ([1]; DIO mice): prevented and reduced hepatic steatosis
- Acc2, Fas and Scd1 mRNA levels in liver ([1]; DIO mice, dose-dependent): decreased Acc2, Fas, and Scd1 mRNA levels
- UCP1 expression in BAT and iWAT ([1]; slightly, dose-dependent): reduced UCP1 expression
- Atgl mRNA levels in iWAT ([1]; test material-HFD 7 w): increased both p-S406 ATGL levels and Atgl mRNA levels
- p-S406 ATGL levels in iWAT ([1]; test material-HFD 7 w): increased both p-S406 ATGL levels and Atgl mRNA levels
- levels of pAMPK (p-T172) [2]: increased
- p-S79 ACC (pACC) levels [2]: increased

From patent US20220023269A1, “Methods Of Treating Diabetes In Severe Insulin-Resistant Diabetic Subjects” (Balticgruppen Bio AB, priority 2018, published 2022)
